Laboratory results reported in US20250213707A1, “COMPOUND FOR INCREASING EFFICACY OF ONCOLYTIC VIRUSES” (ABLEVIA BIOTECH GMBH, priority 2022, published 2025).
Ends that are not written are not given here.

What was measured:
[1] = system: IgG from human donors (anti-AAV antibodies); experiment: Screen for anti-AAV antibodies in human sera based on cyclic 14-amino-acid AAV peptides on microarrays (Table 2); type: binding; parameters: key: X: the deduplicated aggregate of the respective top 50 peptide hits for each donor was compiled and designated as group I; conditions: human donor IgG; circularized AAV peptides; top 50 peptide hits for each donor
Method: More than 1200 cyclic peptides derived from the sequences of human and rhesus monkey AAV sequences and artificial AAV sequences according to Table 2 and with a sequence length of 14 amino-acids each were synthesized.
Samples obtained from human donors were screened for antibodies against these AAV-derived peptides immobilized on microarrays. To this end, IgG was prepared from blood obtained from the human donors by protein G purification. Each IgG sample was incubated with the peptide microarrays and Ig binding signals were detected by fluorescence. All antibody binding signals to the peptides on the arrays were background subtracted and ranked for each sample and a deduplicated aggregate of the respective top 250 peptide hits for each donor with the corresponding protein sequence of origin (as obtained from UniProt or other sources) was compiled (designated as group II). Further, the deduplicated aggregate of the respective top 50 peptide hits for each donor was compiled and designated as group I.
Altogether, group I contains 47 distinct peptide hits (assigned to the corresponding AAV vectors in Table 2) and group II yielded 172 distinct peptide hits. Evidently, group I is a subset of group II.

[2] = system: IgG from human donors (anti-AAV antibodies); experiment: Screen for anti-AAV antibodies in human sera, 2452 linear 15-amino-acid AAV peptides on microarrays (Table 1); type: binding; parameters: key to group I: X: the deduplicated aggregate of the respective top 10 peptide hits for each donor was compiled and designated as group I; key to group II: X: the deduplicated aggregate of the respective top 25 peptide hits for each donor was compiled and designated as group II; key to group III: X: the deduplicated aggregate of the respective top 50 peptide hits for each donor was compiled and designated as group III; conditions: human donor IgG binding to linear 15-amino-acid AAV peptides on microarray, fluorescence; for group II: membership in deduplicated aggregate of top 25 peptide hits for each donor; for group III: membership in deduplicated aggregate of top 50 peptide hits for each donor; for group I: membership in deduplicated aggregate of top 10 peptide hits for each donor
Outline: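 Protein G-purified IgG from human donor blood incubated with microarrays of 2452 linear 15-mer peptides from 16 AAVs; binding read by fluorescence. Background-subtracted signals ranked per donor, with top 10, 25, 50 and 250 hits pooled and deduplicated into groups I-IV.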

[3] = system: polyclonal antibody ab6982; experiment: Epitope mapping of polyclonal antibody ab6982 against cyclic peptides of Ad5 fiber and hexon (peptide array); type: binding, rabbits; conditions: cyclic peptides of fiber protein (clusters 1-7)

## 1910 (FNIQVKEVTTNDGV; REGION 1..14: note = peptide derived from viral capsid protein) [compound 1910]
[1]
  group I: X

## 1895 (ANNLTSTVQIFADS; REGION 1..14: note = peptide derived from viral capsid protein) [compound 1895]
[1]
  group I: X

## 1918 (APGKKRPVDQSPQE; REGION 1..14: note = peptide derived from viral capsid protein) [compound 1918]
[1]
  group I: X

## 1907 (IFNIQVKEVTTSNG; REGION 1..14: note = peptide derived from viral capsid protein) [compound 1907]
[1]
  group I: X

## 1928 (DKAYDQQLQAGDNP; REGION 1..14: note = peptide derived from viral capsid protein) [compound 1928]
[1]
  group I: X

## 1922 (SESVPDPQPLGEPP; REGION 1..14: note = peptide derived from viral capsid protein) [compound 1922]
[1]
  group I: X

## 1913 (QLKAGDNPYLRYNH; REGION 1..14: note = peptide derived from viral capsid protein) [compound 1913]
[1]
  group I: X

## 1914 (SFITQYSTGQVSVE; REGION 1..14: note = peptide derived from viral capsid protein) [compound 1914]
[1]
  group I: X

## 1934 (LQQQNTAPQIGTVN; REGION 1..14: note = peptide derived from viral capsid protein) [compound 1934]
[1]
  group I: X

## 1927 (GTNTMATGSGAPMA; REGION 1..14: note = peptide derived from viral capsid protein) [compound 1927]
[1]
  group I: X

## 1929 (TESVPDPQPIGEPP; REGION 1..14: note = peptide derived from viral capsid protein) [compound 1929]
[1]
  group I: X

## 1898 (LEDNLSEGIREWWD; REGION 1..14: note = peptide derived from viral capsid protein) [compound 1898]
[1]
  group I: X

## 1892 (DSQWLGDRVITTST; REGION 1..14: note = peptide derived from viral capsid protein) [compound 1892]
[1]
  group I: X

## 1919 (GKKRPVDQSPQEPD; REGION 1..14: note = peptide derived from viral capsid protein) [compound 1919]
[1]
  group I: X

## 1901 (PQYGYLTLNNGSQA; REGION 1..14: note = peptide derived from viral capsid protein) [compound 1901]
[1]
  group I: X

## 1938 (PLVDQYLYRFVSTN; REGION 1..14: note = peptide derived from viral capsid protein) [compound 1938]
[1]
  group I: X

## 1937 (DDEDKFFPMSGVMI; REGION 1..14: note = peptide derived from viral capsid protein) [compound 1937]
[1]
  group I: X

## 1903 (NYNKSVNVDFTVDT; REGION 1..14: note = peptide derived from viral capsid protein) [compound 1903]
[1]
  group I: X

## 1900 (LIKNTPVPADPPTT; REGION 1..14: note = peptide derived from viral capsid protein) [compound 1900]
[1]
  group I: X

## KSTSVDFAVNTEGV [SEQ ID NO: 2025]
[2]
  group II: X
  group III: X
[3]
  antibody binding signal ranking from the microarray experiment: 039

## TTSANNLLFTSEEE [SEQ ID NO: 2056]
[2]
  group II: X
  group III: X
[3]
  antibody binding signal ranking from the microarray experiment: 078

## QQRLSKTANDNNNS [SEQ ID NO: 1993]
[2]
  group I: X
  group II: X
  group III: X
[3]
  antibody binding signal ranking from the microarray experiment: 019

## NPVATEQYGSVSTN (REGION 1..14: note = peptide derived from viral capsid protein) [SEQ ID NO: 2005]
[2]
  group II: X
  group III: X
[3]
  antibody binding signal ranking from the microarray experiment: 004

## PVPADPPTAFNKDK (REGION 1..14: note = peptide derived from viral capsid protein) [SEQ ID NO: 2018]
[2]
  group II: X
  group III: X
[3]
  antibody binding signal ranking from the microarray experiment: 012

## SKTANDNNNSNFPW (REGION 1..14: note = peptide derived from viral capsid protein) [SEQ ID NO: 1995]
[2]
  group I: X
  group II: X
  group III: X
[3]
  antibody binding signal ranking from the microarray experiment: 035

## NEADAAALEHDKAY (REGION 1..14: note = peptide derived from viral capsid protein) [SEQ ID NO: 2004]
[2]
  group II: X
  group III: X
[3]
  antibody binding signal ranking from the microarray experiment: 163

## EGADGVGNASGNWH (REGION 1..14: note = peptide derived from viral capsid protein) [SEQ ID NO: 2046]
[2]
  group II: X
  group III: X
[3]
  antibody binding signal ranking from the microarray experiment: 169

## RVSKTKTDNNNSNF [SEQ ID NO: 2049]
[2]
  group II: X
  group III: X
[3]
  antibody binding signal ranking from the microarray experiment: 178

## MNPGPAMASHKEGE [SEQ ID NO: 2017]
[2]
  group II: X
  group III: X
[3]
  antibody binding signal ranking from the microarray experiment: 011

## KNTPVPADPPTTFN (REGION 1..14: note = peptide derived from viral capsid protein) [SEQ ID NO: 2011]
[2]
  group II: X
  group III: X
[3]
  antibody binding signal ranking from the microarray experiment: 076

## KGEPVNEADAAALE (REGION 1..14: note = peptide derived from viral capsid protein) [SEQ ID NO: 2003]
[2]
  group II: X
  group III: X
[3]
  antibody binding signal ranking from the microarray experiment: 153

## KKRILEPLGLVEEG [SEQ ID NO: 2034]
[2]
  group II: X
  group III: X
[3]
  antibody binding signal ranking from the microarray experiment: 066

## GQTGESESVPDPQP [SEQ ID NO: 2059]
[2]
  group II: X
  group III: X
[3]
  antibody binding signal ranking from the microarray experiment: 095

## LQRGNRQAATADVN (REGION 1..14: note = peptide derived from viral capsid protein) [SEQ ID NO: 2026]
[2]
  group II: X
  group III: X
[3]
  antibody binding signal ranking from the microarray experiment: 044

## GESESVPDPQPIGE [SEQ ID NO: 2058]
[2]
  group II: X
  group III: X
[3]
  antibody binding signal ranking from the microarray experiment: 091

## STGQVAVQIEWEIE [SEQ ID NO: 2055]
[2]
  group II: X
  group III: X
[3]
  antibody binding signal ranking from the microarray experiment: 049

## PYLRYHADAEFQER [SEQ ID NO: 2013]
[2]
  group II: X
  group III: X
[3]
  antibody binding signal ranking from the microarray experiment: 118

## QTGDADSVPDPQPL (not fully specified) [SEQ ID NO: 2008]
[2]
  group II: X
  group III: X
[3]
  antibody binding signal ranking from the microarray experiment: 056

## LSKTANDNNNSNFP (REGION 1..14: note = peptide derived from viral capsid protein) [SEQ ID NO: 1988]
[2]
  group I: X
  group II: X
  group III: X
[3]
  antibody binding signal ranking from the microarray experiment: 001

## SNYNKSVNVDFTVD (REGION 1..14: note = peptide derived from viral capsid protein) [SEQ ID NO: 1996]
[2]
  group I: X
  group II: X
  group III: X
[3]
  antibody binding signal ranking from the microarray experiment: 040

## SQSLDRLMNPLLDQ [SEQ ID NO: 2054]
[2]
  group II: X
  group III: X
[3]
  antibody binding signal ranking from the microarray experiment: 028

## HSQSLDRMMNPLLD [SEQ ID NO: 2033]
[2]
  group II: X
  group III: X
[3]
  antibody binding signal ranking from the microarray experiment: 062

## QQRVSKTSADNNNS (REGION 1..14: note = peptide derived from viral capsid protein) [SEQ ID NO: 2007]
[2]
  group II: X
  group III: X
[3]
  antibody binding signal ranking from the microarray experiment: 015

## PVPADPPTTFNQSK (REGION 1..14: note = peptide derived from viral capsid protein) [SEQ ID NO: 2027]
[2]
  group II: X
  group III: X
[3]
  antibody binding signal ranking from the microarray experiment: 047
